Experiments:
[1] = Test 4: metabolic stability test in human hepatic microsome; assay type: in vitro ADME; conditions: 0.1 mg/mL microsome, 0.1 μmol/L compound, NADPH, 37° C., 30 minutes
Summary of the method: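 Test compound at 0.1 μmol/L incubated 30 min at 37° C with human liver microsomes (0.1 mg/mL) and NADPH (3.2 mmol/L) in 25 mmol/L phosphate buffer, pH 7.4. Residual compound quantified by LC-MS; clearance (mL/min/mg protein) = −LN(residual ratio)/30/0.1.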

[2] = Test 11: hepatotoxic risk (dansyl glutathione (dGSH) trapping assay); assay type: in vitro ADME; conditions: human hepatic microsome, 37° C. for 60 minutes, N.D. means below detection limit
Protocol: Test 11: Evaluation of Hepatotoxic Risk (Dansyl Glutathione (dGSH) Trapping Assay)
The present compound was metabolized in hepatic microsome, and reactive metabolite which reacts with dansyl glutathione (dGSH) was detected and quantified from the resulting metabolite. Measurement was carried out with a screening robot (Tecan) for metabolic reaction, and with a fluorescence detection UPLC system (Waters) for metabolite-dGSH binding concentration.
The present compound was dissolved in DMSO to prepare 10 mmol/L test compound solution. 7.6 mL of potassium phosphate buffer (500 mmol/L, pH 7.4), 1.9 mL of human hepatic microsome (Xenotech, 20 mg protein/mL), and 1.27 mL of pure water were mixed to prepare a microsome solution. To 3.78 mL of the microsome solution was added 0.67 mL of pure water to prepare a microsome (dGSH(−)) solution. To 6.48 mL of the microsome solution was added 1.14 mL of the dGSH solution (20 mmol/L) to prepare a microsome (dGSH(+)) solution. […]
Metabolite-dGSH binding concentration was measured by the following method, using a fluorescence detection UPLC system (Waters). […]
Fluorescence intensity was corrected with the composition of organic solvent at the time of elution because fluorescence intensity changes depending on the composition of organic solvent.

- Metabolic stability in human hepatic microsome [1]: 0.039 mL/min/mg protein
SMILES: O=C1c2ncccc2CCN1CCN1CCC(c2noc3ccccc23)CC1 [Example 22, 7-{2-[4-(1,2-Benzoisoxazol-3-yl)piperidin-1-yl]ethyl}-6,7-dihydro-1,7-naphthyridin-8(5H)-one]
- Metabolite-dGSH binding concentration [2]: 0.089 µM

Source: patent US11466007B2, “Substituted lactams showing serotonin 5-HT receptor activity” (Sumitomo Pharma Co., Ltd., priority 2018, dated 2022)
